According to patent publication US20170218445A1, “DRUG DISCOVERY METHODS USING PLANT DEVELOPMENTAL BIOLOGY” (SEOUL NATIONAL UNIVERSITY R&DB FOUNDATION, priority 2014, published 2017):

Test system: A. thaliana seedlings
Test: Growth and development response of A. thaliana seedlings grown in liquid medium with anticancer drug or hot-water extract
Assay type: in vivo, Arabidopsis thaliana
Conditions: for generation of lateral roots: anticancer drug treatment; for hypocotyl length growth depending on concentration: statistical computing, FIG. 11
Protocol: The Columbia seeds collected from wild-type A. thaliana plants were sterilized and then kept in a dark place at 4° C. for 3 days to enhance germination rate thereof. The wild-type A. thaliana seeds sown on an MS solid medium containing agar were germinated at 22° C. and on the long day condition of 16 hours the day/8 hours night and allowed to grow the A. thaliana seedlings for three days.
The undiluted extract of traditional herbal medicinal material described above was diluted at the ratios of 0.5×, 0.25× and 0.05×, and the MS liquid medium of 1 ml was mixed well with distilled water to make a total volume of 2 ml. in a 12-well cell culture plate. About ten A. thaliana seedlings were planted in each well and the plates were put on a shaker to cultivate them at 100 rpm for three days. Growth and development of the arabidopsis seedlings was analyzed after three days. Each test was carried out in 3 replicates.
The analysis of A. thaliana seedling response to anticancer drugs was made in the same manner, except that the anticancer drugs were applied instead of the traditional herbal medicinal material extract.
Root length, the number of lateral roots and hypocotyl length of the A. thaliana seedlings were measured in order to find the difference in developmental biology shown by the response of A. thaliana seedlings to the anticancer drugs and the extract. The ImageJ software (see rsb.info.nih.gov/ij/) was used to measure the respective lengths in images of the photograph file.
Crude extracts were made with the traditional herbal medicinal materials of each prescription and medicinal material components thereof, respectively, and the ⅕-fold-diluted solution was used as a first effective concentration. The solution was produced by adding 0.4 ml of the crude extract to 1 ml of the 0.5× MS medium and 0.6 ml of water.
For making more quantitative analysis of the reaction to respective traditional herbal medicinal materials, the number of lateral roots were measured for 12 or more A. thaliana seeedlings in each treatment group. […]

[1] = vs DMSO-treated control seedlings, FIG. 8

CC(=O)O[C@H]1C(=O)[C@@]2(C)[C@H]([C@H](OC(=O)c3ccccc3)[C@]3(O)C[C@H](OC(=O)[C@H](O)[C@@H](NC(=O)c4ccccc4)c4ccccc4)C(C)=C1C3(C)C)[C@]1(OC(C)=O)CO[C@@H]1C[C@@H]2O [taxol, Paclitaxel] was tested, and the root morphology (2 uM, three days after treatment, vs water-treated control roots, FIG. 9) was “dense root hairs and opaque epidermal cells”, the “generation of lateral roots” value (FIG. 8) was “not significantly affected” and the “hypocotyl length growth depending on concentration” value was “inhibited in a significant level”. The “number of lateral roots generated” value (treated or not with taxol, FIG. 8) was “Approximately five”, the hypocotyl growth [1] was “inhibited in proportion to the concentrations” and the root growth [1] was “inhibited in proportion to the concentrations”. The “trichome morphology (branches)” value (vs control group, FIG. 10) was “changed from the three-branch type to the one-branch type”.

CC[C@@]1(O)C(=O)OCc2c1cc1n(c2=O)Cc2cc3ccccc3nc2-1 [camptothecin] was tested, and the “generation of lateral roots at low concentration” value (0.05 uM) was “inhibited generation of lateral roots”, the “generation of lateral roots” value (FIG. 8) was “markedly inhibited” and the “hypocotyl length growth depending on concentration” value was “inhibited in a significant level”.
